In patent publication US11203591B2, “Substituted 6-azabenzimidazole compounds” (Gilead Sciences, Inc., priority 2018, dated 2021):

Target: human HPK1 (MAP4K1) (Homo sapiens (Human), UniProt Q92918)
Assay: HPK1 IC50 Assay (TR-FRET peptide phosphorylation)
Assay type: biochemical
Summary of the method: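 Readout: TR-FRET (665 nm/620 nm) after EDTA stop, detecting STK S1 peptide (1 μM) phosphorylation by 0.15 nM HPK1 kinase domain, ATP-pre-activated, at 10 μM ATP over 3 h, 25° C, pH 7.0. IC50s from four-parameter variable-slope fits, normalized to staurosporine and DMSO, averaged geometrically.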

[1] = recombinant HPK1 kinase domain 0.15 nM, 10 μM ATP, 1 μM STK S1 peptide, geometric mean of multiple experiments
[2] = 0.15 nM HPK1, 10 μM ATP, 1 μM STK S1 peptide substrate, geometric mean

human HPK1 (MAP4K1), sequence (Q92918 17-274): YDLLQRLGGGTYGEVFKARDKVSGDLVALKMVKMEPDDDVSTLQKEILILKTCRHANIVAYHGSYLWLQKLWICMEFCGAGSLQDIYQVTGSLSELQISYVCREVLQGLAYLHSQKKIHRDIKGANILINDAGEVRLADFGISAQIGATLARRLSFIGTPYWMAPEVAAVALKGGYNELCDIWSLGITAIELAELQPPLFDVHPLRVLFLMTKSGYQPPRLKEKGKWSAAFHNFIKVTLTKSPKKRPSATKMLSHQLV

Row | SMILES | IC50 [1] [nM] | IC50 [2] [nM]
1 | Cc1c(C(=O)NC2(C(F)F)CC2)cc(Nc2nc(-c3cnc4c(c3)N([C@H]3C[C@@](C)(N5CC6CCC(C5)O6)C3)C(=O)C4(C)C)cc3ncn(C(C)C)c23)c(F)c1F [Example 228, 5-((6-(1-((1s,3s)-3-(8-Oxa-3-azabicyclo[3.2.1]octan-3-yl)-3-methylcyclobutyl)-3,3-dimethyl-2-oxo-2,3-dihydro-1H-pyrrolo[3,2-b]pyridin-6-yl)-3-isopropyl-3H-imidazo[4,5-c]pyridin-4-yl)amino)-N-(1-(difluoromethyl)cyclopropyl)-3,4-difluoro-2-methylbenzamide] | 0.3 | 
2 | CNC(=O)c1cc(Nc2nc(-c3ccc4c(c3)N([C@H]3C[C@@H](N5CC[C@@H](F)C5)C3)C(=O)C43CCN(C4COC4)CC3)cc3ncn(C(C)C)c23)c(F)cc1C [Example 71] | 0.1 | 
3 | CC(C)n1cnc2cc(-c3cnc4c(c3)N([C@H]3C[C@@](C)(N5CCCCC5)C3)C(=O)C4(C)C)nc(Nc3cc(C(=O)NC4(C(F)F)CC4)c(Cl)c(F)c3F)c21 [Example 207, 2-Chloro-N-(1-(difluoromethyl)cyclopropyl)-5-((6-(3,3-dimethyl-1-((1s,3s)-3-methyl-3-(piperidin-1-yl)cyclobutyl)-2-oxo-2,3-dihydro-1H-pyrrolo[3,2-b]pyridin-6-yl)-3-isopropyl-3H-imidazo[4,5-c]pyridin-4-yl)amino)-3,4-difluorobenzamide] | 0.08 | 
4 | Cc1ccc(Nc2nc(-c3ccc4c(c3)N([C@H]3C[C@@H](N5CCCCC5)C3)C(=O)C43CCOCC3)cc3ncn(C4CC4)c23)cc1C(N)=O [Example 126] | 0.07 | 
5 | CC(=O)N1CCC2(CC1)C(=O)N([C@H]1C[C@@H](N3CCCCC3)C1)c1cc(-c3cc4ncn(C(C)C)c4c(Nc4cc(C(=O)NC(C)C)c(C)cc4F)n3)ccc12 [Example 129] | 0.2 | 
6 | CC(C)n1cnc2cc(-c3ccc4c(c3)N([C@H]3C[C@@](C)(N5CCCCC5)C3)C(=O)C4(C)C)nc(Nc3cc(C(=O)NC4(C(F)F)CC4)c(Cl)c(F)c3F)c21 [Example 241, 2-Chloro-N-(1-(difluoromethyl)cyclopropyl)-5-((6-(3,3-dimethyl-1-((1s,3s)-3-methyl-3-(piperidin-1-yl)cyclobutyl)-2-oxoindolin-6-yl)-3-isopropyl-3H-imidazo[4,5-c]pyridin-4-yl)amino)-3,4-difluorobenzamide] | 0.1 | 
7 | CCNC(=O)c1ccc(F)c(Nc2nc(-c3ccc4c(c3)N([C@H]3C[C@@](C)(N5CCCCC5)C3)C(=O)C4(C)C)cc3ncn(C(C)C)c23)c1 [Example 240, 3-((6-(3,3-Dimethyl-1-((1s,3s)-3-methyl-3-(piperidin-1-yl)cyclobutyl)-2-oxoindolin-6-yl)-3-isopropyl-3H-imidazo[4,5-c]pyridin-4-yl)amino)-N-ethyl-4-fluorobenzamide] | 0.09 | 
8 | CNC(=O)c1cc(Nc2nc(-c3ccc4c(c3)N([C@H]3C[C@@H](N5CC[C@H](F)C5)C3)C(=O)C43CCN(C4COC4)CC3)cc3ncn(C(C)C)c23)c(F)cc1C [Example 72] | 0.2 | 
9 | Cc1c(C(=O)NC2(C(F)F)CC2)cc(Nc2nc(-c3cnc4c(c3)N(C3CC(C)(N5CCC6C[C@@H]6C5)C3)C(=O)C4(C)C)cc3ncn(C(C)C)c23)c(F)c1F (some centres unmarked) [Example 232, 5-((6-(1-((1s,3s)-3-(3-azabicyclo[4.1.0]heptan-3-yl)-3-methylcyclobutyl)-3,3-dimethyl-2-oxo-2,3-dihydro-1H-pyrrolo[3,2-b]pyridin-6-yl)-3-isopropyl-3H-imidazo[4,5-c]pyridin-4-yl)amino)-N-(1-(difluoromethyl)cyclopropyl)-3,4-difluoro-2-methylbenzamide] | 0.09 | 
10 | CNC(=O)c1cc(Nc2nc(-c3ccc4c(c3)N([C@H]3C[C@@H](N5CCCCC5)C3)C(=O)C43CCN(C(=O)[C@@H](C)O)CC3)cc3ncn(C4CC4)c23)ccc1C [Example 151] | 0.05 | 
11 | CC(C)n1cnc2cc(-c3ccc4c(c3)N([C@]3(C)C[C@H](N5CCCCC5)C3)C(=O)C4(C)C)nc(Nc3cc(C(=O)NC4(C(F)F)CC4)c(Cl)c(F)c3F)c21 [Example 296, 2-Chloro-N-(1-(difluoromethyl)cyclopropyl)-5-((6-(3,3-dimethyl-1-((1s,3s)-1-methyl-3-(piperidin-1-yl)cyclobutyl)-2-oxoindolin-6-yl)-3-isopropyl-3H-imidazo[4,5-c]pyridin-4-yl)amino)-3,4-difluorobenzamide] |  | 0.1
12 | CC(=O)N1CCC2(CC1)C(=O)N([C@H]1C[C@@H](N3C4CCC3COC4)C1)c1cc(-c3cc4ncn(C(C)C)c4c(Nc4cc(C(=O)NC(C)C)c(C)cc4F)n3)ccc12 [Example 77] | 0.06 | 
13 | Cc1ccc(Nc2nc(-c3ccc4c(c3)N([C@H]3C[C@@H](N5CCOC(C)(C)C5)C3)C(=O)C4(C)C)cc3ncn(C4CC4)c23)cc1C(N)=O [Example 16] | 0.1 | 
14 | CCNC(=O)c1cc(Nc2nc(-c3ccc4c(c3)N([C@H]3C[C@@H](N5CCCCC5)C3)C(=O)C4(C)C)cc3ncn(C(C)C)c23)ccc1C [Example 138] | 0.1 | 
15 | COCCNC(=O)c1cc(Nc2nc(-c3ccc4c(c3)N([C@H]3C[C@@H](N5CCCCC5)C3)C(=O)C4(C)C)cc3ncn(C(C)C)c23)ccc1C [Example 137] | 0.1 | 
16 | Cc1ccc(Nc2nc(-c3ccc4c(c3)N([C@H]3C[C@@H](N5CCCCC5)C3)C(=O)C4(C)C)cc3ncn(C(C)C)c23)cc1C(=O)NC1(CF)CC1 [Example 174, 5-((6-(3,3-dimethyl-2-oxo-1-((1s,3s)-3-(piperidin-1-yl)cyclobutyl)indolin-6-yl)-3-isopropyl-3H-imidazo[4,5-c]pyridin-4-yl)amino)-N-(1-(fluoromethyl)cyclopropyl)-2-methylbenzamide] | 0.09 | 
17 | CCNC(=O)c1cc(Nc2nc(-c3ccc4c(c3)N([C@H]3C[C@@H](N5CCC[C@@H](F)C5)C3)C(=O)C43CCN(C4COC4)CC3)cc3ncn(C(C)C)c23)c(F)cc1C [Example 171] | 0.2 | 
18 | Cc1c(C(=O)NC2(C(F)F)CC2)cc(Nc2nc(-c3cnc4c(c3)N([C@H]3C[C@@](C)(N5CCCCCC5)C3)C(=O)C4(C)C)cc3ncn(C(C)C)c23)c(F)c1F [Example 229, 5-((6-(1-((1s,3s)-3-(Azepan-1-yl)-3-methylcyclobutyl)-3,3-dimethyl-2-oxo-2,3-dihydro-1H-pyrrolo[3,2-b]pyridin-6-yl)-3-isopropyl-3H-imidazo[4,5-c]pyridin-4-yl)amino)-N-(1-(difluoromethyl)cyclopropyl)-3,4-difluoro-2-methylbenzamide] | 0.08 | 
19 | CC[C@H](C)n1cnc2cc(-c3ccc4c(c3)N([C@H]3C[C@@H](N5CCCCC5)C3)C(=O)C4(C)C)nc(Nc3ccc(C)c(C(=O)NC)c3)c21 [Example 128] | 0.1 | 
20 | COCCNC(=O)c1cc(Nc2nc(-c3ccc4c(c3)N([C@H]3C[C@@H](N5CCCCC5)C3)C(=O)C43CCN(C(C)=O)CC3)cc3ncn(C(C)C)c23)ccc1C [Example 131] | 0.2 | 
21 | CNC(=O)c1cc(Nc2nc(-c3ccc4c(c3)N([C@H]3C[C@@H](N5CCCCC5)C3)C(=O)C43CCN(S(C)(=O)=O)CC3)cc3ncn(C4CC4)c23)ccc1C [Example 168] | 0.1 | 
22 | CNC(=O)c1cc(Nc2nc(-c3ccc4c(c3)N([C@H]3C[C@@H](N5CCCCC5)C3)C(=O)C43CCN(C(C)=O)CC3)cc3ncn(C(C)C)c23)ccc1C [Example 46] | 0.1 | 
23 | Cc1cc(F)c(Nc2nc(-c3ccc4c(c3)N([C@]3(C)C[C@H](N5CCCCC5)C3)C(=O)C4(C)C)cc3ncn(C(C)C)c23)cc1C(=O)NC1(C(F)F)CC1 [Example 295, N-(1-(difluoromethyl)cyclopropyl)-5-((6-(3,3-dimethyl-1-((1s,3s)-1-methyl-3-(piperidin-1-yl)cyclobutyl)-2-oxoindolin-6-yl)-3-isopropyl-3H-imidazo[4,5-c]pyridin-4-yl)amino)-4-fluoro-2-methylbenzamide] |  | 0.1
24 | CCNC(=O)c1cc(Nc2nc(-c3cc4c(nc3F)C(C)(C)C(=O)N4[C@H]3C[C@@](C)(N4CCCCC4)C3)cc3ncn(C(C)C)c23)c(F)c(F)c1Cl [Example 273, 2-chloro-N-ethyl-3,4-difluoro-5-((6-(5-fluoro-3,3-dimethyl-1-((1s,3s)-3-methyl-3-(piperidin-1-yl)cyclobutyl)-2-oxo-2,3-dihydro-1H-pyrrolo[3,2-b]pyridin-6-yl)-3-isopropyl-3H-imidazo[4,5-c]pyridin-4-yl)amino)benzamide] |  | 0.07
25 | CC(C)n1cnc2cc(-c3cnc4c(c3)N([C@H]3C[C@@](C)(N5CCC6CC6C5)C3)C(=O)C4(C)C)nc(Nc3cc(C(=O)NC4(CF)CC4)c(Cl)c(F)c3F)c21 (mixture of isomers) [Example 257, 5-((6-(1-((1s,3s)-3-(3-azabicyclo[4.1.0]heptan-3-yl)-3-methylcyclobutyl)-3,3-dimethyl-2-oxo-2,3-dihydro-1H-pyrrolo[3,2-b]pyridin-6-yl)-3-isopropyl-3H-imidazo[4,5-c]pyridin-4-yl)amino)-2-chloro-3,4-difluoro-N-(1-(fluoromethyl)cyclopropyl)benzamide] | 0.1 | 
26 | CC(=O)N1CCC2(CC1)C(=O)N([C@H]1C[C@@H](N3CCCCC3)C1)c1cc(-c3cc4ncn(C(C)C)c4c(Nc4ccc(C)c(C(=O)NC5CC5)c4)n3)ccc12 [Example 94] | 0.06 | 
27 | CNC(=O)c1cc(Nc2nc(-c3ccc4c(c3)N([C@H]3C[C@@H](N5CCCC(C)(C)C5)C3)C(=O)C43CCN(C(C)=O)CC3)cc3ncn(C4CC4)c23)ccc1C [Example 161] | 0.06 | 
28 | CNC(=O)c1cc(Nc2nc(-c3ccc4c(c3)N([C@H]3C[C@@H](NCC(C)(C)F)C3)C(=O)C4(C)C)cc3ncn(C(C)C)c23)ccc1C [Example 82] | 0.08 | 
29 | Cc1ccc(Nc2nc(-c3ccc4c(c3)N([C@H]3C[C@@H](N5CCCCC5)C3)C(=O)C4(C)C)cc3ncn(C(C)C)c23)cc1C(=O)NC(C)C [Example 136, 5-((6-(3,3-dimethyl-2-oxo-1-((1s,3s)-3-(piperidin-1-yl)cyclobutyl)indolin-6-yl)-3-isopropyl-3H-imidazo[4,5-c]pyridin-4-yl)amino)-N-isopropyl-2-methylbenzamide] | 0.1 | 
